Measured values reported in PMC10599993, “The PTPN2/PTPN1 inhibitor ABBV-CLS-484 unleashes potent anti-tumour immunity” (Nature, 2023).

Assays:
Experiment in all cases: biochemical
Design in all cases: Safety pharmacology off-target panel at Eurofins, radioligand binding with agonist or antagonist radioligand (Supplementary Table 2)
5-HT1A = target: T1, 5-HT1A (Homo sapiens, UniProt P08908); conditions: agonist radioligand
T1 construct: gene HTR1A
Protocol: (§1) Wide-range phosphatase, kinase and preclinical safety pharmacology off-target activity screens were conducted at Eurofins (Extended Data Table 5 and Supplementary Tables 1 and 2). A small phosphatase panel was developed at AbbVie to assess IC50 values on select phosphatases. The following enzymes used in the phosphatase selectivity panel were purchased from Eurofins: PTPN1 (PTP1B; 14–621), PTPN2 (TC-PTP; 14–646), PTPN9 (14–592), SHP1 (14–591) and SHP2 (14–622). The catalytic activity of the phosphatase was monitored using the small-molecule substrate DiFMUP (ThermoFisher) in a fluorescence assay format. In brief, the phosphatase reactions were performed at room temperature in the following assay buffer: 50 mM HEPES, pH 7.2, 100 mM NaCl, 1 mM EDTA, 0.005% Tween-20 and 5 mM TCEP. Each phosphatase was incubated with increasing concentrations of AC484 for 5 min, after which the substrate DiFMUP was added and incubated at 25 °C for 30 min. The final concentration of the enzyme and substrate was maintained at 0.5 nM and 5 μM, respectively, in all the assays. The reaction was then quenched by the addition of a 100 μM solution of bpV(Phen) (Enzo Life Sciences). The fluorescence signal was monitored using an Envision microplate reader (Perkin-Elmer) using excitation and emission wavelengths of 340 nm and 450 nm, respectively. The dose–response curves for the inhibitors were analysed using normalized IC50 regression curve fitting with control-based normalization. Supplementary file 41586_2023_6575_MOESM4_ESM.xlsx: Supplementary Table 2 AC484 receptor selectivity screen.

5-HT2B = target: T2, 5-HT2B (Homo sapiens, UniProt P41595); conditions: agonist radioligand
T2 construct: gene HTR2B
Protocol: as §1

A1 (h) = target: T3, A1 (h) (Homo sapiens, UniProt P30542); conditions: antagonist radioligand
T3 construct: gene ADORA1
T3 sequence (P30542 whole entry): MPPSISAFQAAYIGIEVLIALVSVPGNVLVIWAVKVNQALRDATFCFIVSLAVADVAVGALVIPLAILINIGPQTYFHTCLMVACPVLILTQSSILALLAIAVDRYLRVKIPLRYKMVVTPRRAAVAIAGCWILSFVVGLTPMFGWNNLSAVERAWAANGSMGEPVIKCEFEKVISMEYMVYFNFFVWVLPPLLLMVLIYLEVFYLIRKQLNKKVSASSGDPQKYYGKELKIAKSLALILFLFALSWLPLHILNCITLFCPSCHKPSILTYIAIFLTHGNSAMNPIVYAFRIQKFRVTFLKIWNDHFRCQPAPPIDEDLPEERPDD
Protocol: as §1

A2B (h) [1] = target: T4, A2B (h) (Homo sapiens, UniProt P29275); conditions: antagonist radioligand
T4 construct: gene ADORA2B
T4 sequence (P29275 whole entry): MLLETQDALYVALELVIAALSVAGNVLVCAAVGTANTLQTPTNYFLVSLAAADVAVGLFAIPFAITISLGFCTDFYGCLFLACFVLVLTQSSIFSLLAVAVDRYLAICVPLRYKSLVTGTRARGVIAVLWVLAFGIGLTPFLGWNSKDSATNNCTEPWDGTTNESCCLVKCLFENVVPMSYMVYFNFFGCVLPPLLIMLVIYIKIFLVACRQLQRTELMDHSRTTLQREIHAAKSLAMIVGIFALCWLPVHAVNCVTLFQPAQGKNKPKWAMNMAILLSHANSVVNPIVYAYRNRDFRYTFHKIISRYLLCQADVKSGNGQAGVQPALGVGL
Protocol: as §1

AR = AR (Homo sapiens, UniProt P10275); conditions: agonist radioligand
Chain of AR (P10275 whole entry): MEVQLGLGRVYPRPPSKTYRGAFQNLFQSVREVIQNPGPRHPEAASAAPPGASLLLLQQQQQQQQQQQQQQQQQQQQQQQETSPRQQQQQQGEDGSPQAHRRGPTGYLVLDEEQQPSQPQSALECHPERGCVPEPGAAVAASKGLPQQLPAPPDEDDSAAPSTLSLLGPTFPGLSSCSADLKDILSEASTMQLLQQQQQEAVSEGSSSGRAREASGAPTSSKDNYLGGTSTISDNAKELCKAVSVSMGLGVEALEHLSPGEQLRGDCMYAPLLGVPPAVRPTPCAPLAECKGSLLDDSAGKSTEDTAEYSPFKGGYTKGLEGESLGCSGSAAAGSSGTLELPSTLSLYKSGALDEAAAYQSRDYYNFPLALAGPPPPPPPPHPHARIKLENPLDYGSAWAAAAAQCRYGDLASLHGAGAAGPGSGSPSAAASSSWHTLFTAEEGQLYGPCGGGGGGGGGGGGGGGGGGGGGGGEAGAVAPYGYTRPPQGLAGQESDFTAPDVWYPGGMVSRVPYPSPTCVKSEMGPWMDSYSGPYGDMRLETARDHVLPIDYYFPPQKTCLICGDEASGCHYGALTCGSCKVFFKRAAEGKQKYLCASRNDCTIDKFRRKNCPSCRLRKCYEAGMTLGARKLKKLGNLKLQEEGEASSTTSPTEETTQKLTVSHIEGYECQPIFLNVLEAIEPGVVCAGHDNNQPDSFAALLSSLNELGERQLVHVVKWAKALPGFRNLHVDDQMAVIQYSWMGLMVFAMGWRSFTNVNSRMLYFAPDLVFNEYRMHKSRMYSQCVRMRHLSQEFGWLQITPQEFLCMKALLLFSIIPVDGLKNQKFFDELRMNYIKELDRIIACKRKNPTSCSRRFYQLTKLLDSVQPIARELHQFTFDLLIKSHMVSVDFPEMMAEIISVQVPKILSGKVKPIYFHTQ
Protocol: as §1

CB1 = target: T5, CB1 (Homo sapiens, UniProt P21554); conditions: agonist radioligand
T5 construct: gene CNR1
T5 sequence (P21554 whole entry): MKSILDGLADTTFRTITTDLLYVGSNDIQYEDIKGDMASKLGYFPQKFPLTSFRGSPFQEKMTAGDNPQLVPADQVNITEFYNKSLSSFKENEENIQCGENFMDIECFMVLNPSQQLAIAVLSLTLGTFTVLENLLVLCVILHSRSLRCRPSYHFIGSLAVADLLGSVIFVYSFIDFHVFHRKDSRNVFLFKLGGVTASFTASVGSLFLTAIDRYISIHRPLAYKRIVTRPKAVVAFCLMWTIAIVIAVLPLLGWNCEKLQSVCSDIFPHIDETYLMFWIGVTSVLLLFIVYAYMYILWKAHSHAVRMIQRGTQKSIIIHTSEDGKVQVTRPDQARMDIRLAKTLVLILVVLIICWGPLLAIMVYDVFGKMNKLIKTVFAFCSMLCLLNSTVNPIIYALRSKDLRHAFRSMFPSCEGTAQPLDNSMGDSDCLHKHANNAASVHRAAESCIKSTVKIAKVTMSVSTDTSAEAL
Protocol: as §1

CB2 = target: T6, CB2 (Homo sapiens, UniProt P34972); conditions: agonist radioligand
T6 construct: gene CNR2
Protocol: as §1

CGRP = target: T7, CGRP (Homo sapiens, UniProt O60894+Q16602); conditions: agonist radioligand
T7 construct: gene RAMP1
Protocol: as §1

D1 = target: T8, D1 (Homo sapiens, UniProt P21728); conditions: antagonist radioligand
T8 construct: gene DRD1
Protocol: as §1

D2S = target: T9, D2S (Homo sapiens, UniProt P14416); conditions: antagonist radioligand
T9 construct: gene DRD2; D2S short isoform
Protocol: as §1

Estrogen ER alpha = target: T10, Estrogen ER alpha (Homo sapiens, UniProt P03372); conditions: agonist radioligand
T10 construct: gene ESR1
T10 sequence (P03372 whole entry): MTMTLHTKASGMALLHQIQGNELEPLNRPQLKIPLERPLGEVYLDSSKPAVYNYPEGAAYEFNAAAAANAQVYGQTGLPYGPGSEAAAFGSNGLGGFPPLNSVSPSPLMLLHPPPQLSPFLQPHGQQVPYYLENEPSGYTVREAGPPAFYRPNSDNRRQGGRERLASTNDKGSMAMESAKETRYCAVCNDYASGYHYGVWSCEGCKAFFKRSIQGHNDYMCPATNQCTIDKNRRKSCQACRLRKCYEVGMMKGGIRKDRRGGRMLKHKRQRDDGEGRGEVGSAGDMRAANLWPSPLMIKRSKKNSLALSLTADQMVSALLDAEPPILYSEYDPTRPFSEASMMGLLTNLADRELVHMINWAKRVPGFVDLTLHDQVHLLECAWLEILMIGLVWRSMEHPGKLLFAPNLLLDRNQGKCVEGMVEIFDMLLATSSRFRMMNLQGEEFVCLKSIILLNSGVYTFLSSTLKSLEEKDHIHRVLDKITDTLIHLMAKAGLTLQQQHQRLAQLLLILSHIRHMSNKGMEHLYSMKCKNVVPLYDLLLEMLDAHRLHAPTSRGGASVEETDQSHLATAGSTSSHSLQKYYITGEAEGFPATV
Protocol: as §1

M2 = target: T11, M2 (Homo sapiens, UniProt P08172); conditions: antagonist radioligand
T11 construct: gene CHRM2
Protocol: as §1

M4 = target: T12, M4 (Homo sapiens, UniProt P08173); conditions: antagonist radioligand
T12 construct: gene CHRM4
T12 sequence (P08173 whole entry): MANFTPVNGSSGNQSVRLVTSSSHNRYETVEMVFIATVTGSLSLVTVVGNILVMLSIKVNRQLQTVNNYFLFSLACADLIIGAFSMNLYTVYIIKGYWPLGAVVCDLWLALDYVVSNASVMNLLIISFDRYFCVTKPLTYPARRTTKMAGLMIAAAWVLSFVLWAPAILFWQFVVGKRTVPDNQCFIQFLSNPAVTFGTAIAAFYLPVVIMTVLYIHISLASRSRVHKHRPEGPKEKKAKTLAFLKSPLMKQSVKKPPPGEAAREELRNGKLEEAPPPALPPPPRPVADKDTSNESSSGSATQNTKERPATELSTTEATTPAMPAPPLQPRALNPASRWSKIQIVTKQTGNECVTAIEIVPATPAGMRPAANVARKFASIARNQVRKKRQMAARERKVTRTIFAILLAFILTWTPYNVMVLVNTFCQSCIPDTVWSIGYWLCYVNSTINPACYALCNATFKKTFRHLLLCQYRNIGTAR
Protocol: as §1

NK2 = target: T13, NK2 (Homo sapiens, UniProt P21452); conditions: agonist radioligand
T13 construct: gene TACR2
T13 sequence (P21452 whole entry): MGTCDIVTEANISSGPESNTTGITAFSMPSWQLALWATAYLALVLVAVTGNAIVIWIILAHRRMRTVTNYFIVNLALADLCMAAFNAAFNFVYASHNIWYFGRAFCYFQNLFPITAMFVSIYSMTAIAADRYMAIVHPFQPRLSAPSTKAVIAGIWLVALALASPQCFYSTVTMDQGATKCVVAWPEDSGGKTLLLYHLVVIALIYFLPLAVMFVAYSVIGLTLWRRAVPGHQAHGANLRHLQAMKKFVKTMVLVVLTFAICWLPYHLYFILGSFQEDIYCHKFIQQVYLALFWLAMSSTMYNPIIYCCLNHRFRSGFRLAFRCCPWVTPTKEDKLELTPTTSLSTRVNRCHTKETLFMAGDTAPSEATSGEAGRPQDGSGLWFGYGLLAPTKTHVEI
Protocol: as §1

UT = target: T14, UT (Homo sapiens, UniProt Q9UKP6); conditions: agonist radioligand
T14 construct: gene UTS2R
Protocol: as §1

a1A (h) = target: T15, a1A (h) (Homo sapiens, UniProt P35348); conditions: antagonist radioligand
T15 construct: gene ADRA1A
Protocol: as §1

a1B (h) = target: T16, a1B (h) (Homo sapiens, UniProt P35368); conditions: antagonist radioligand
T16 construct: gene ADRA1B
T16 sequence (P35368 whole entry): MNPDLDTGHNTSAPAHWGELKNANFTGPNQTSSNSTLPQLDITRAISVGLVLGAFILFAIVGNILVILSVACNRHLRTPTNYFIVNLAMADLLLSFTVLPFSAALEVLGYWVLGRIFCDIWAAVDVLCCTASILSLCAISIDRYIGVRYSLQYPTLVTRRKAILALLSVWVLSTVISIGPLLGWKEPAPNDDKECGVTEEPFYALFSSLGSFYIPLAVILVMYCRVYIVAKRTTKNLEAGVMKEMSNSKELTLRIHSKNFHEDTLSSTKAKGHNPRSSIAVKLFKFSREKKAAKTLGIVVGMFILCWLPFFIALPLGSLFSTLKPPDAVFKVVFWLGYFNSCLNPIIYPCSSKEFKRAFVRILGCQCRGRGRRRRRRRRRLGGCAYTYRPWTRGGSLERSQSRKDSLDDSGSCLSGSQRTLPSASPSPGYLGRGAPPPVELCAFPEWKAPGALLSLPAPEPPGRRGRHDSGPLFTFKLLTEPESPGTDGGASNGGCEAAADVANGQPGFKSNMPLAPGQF
Protocol: as §1

a2A (h) = target: T17, a2A (h) (Homo sapiens, UniProt P08913); conditions: antagonist radioligand
T17 construct: gene ADRA2A
T17 sequence (P08913 whole entry): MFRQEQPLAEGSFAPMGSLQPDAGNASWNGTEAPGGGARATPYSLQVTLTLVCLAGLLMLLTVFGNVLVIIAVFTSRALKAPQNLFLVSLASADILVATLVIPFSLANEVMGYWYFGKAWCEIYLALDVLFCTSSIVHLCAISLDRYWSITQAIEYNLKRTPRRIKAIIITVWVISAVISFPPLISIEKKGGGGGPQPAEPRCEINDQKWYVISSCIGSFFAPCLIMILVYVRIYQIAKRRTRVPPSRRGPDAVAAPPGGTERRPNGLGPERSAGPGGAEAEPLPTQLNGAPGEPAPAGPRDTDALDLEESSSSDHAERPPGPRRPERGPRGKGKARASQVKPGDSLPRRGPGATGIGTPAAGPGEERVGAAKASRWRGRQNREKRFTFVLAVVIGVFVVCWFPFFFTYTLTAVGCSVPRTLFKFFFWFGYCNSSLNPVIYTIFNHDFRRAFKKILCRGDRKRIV
Protocol: as §1

a2B (h) [2] = target: T18, a2B (h) (Homo sapiens, UniProt P18089); conditions: antagonist radioligand
T18 construct: gene ADRA2B
Protocol: as §1

Measured: AC50

T1 sequence (P08908 whole entry): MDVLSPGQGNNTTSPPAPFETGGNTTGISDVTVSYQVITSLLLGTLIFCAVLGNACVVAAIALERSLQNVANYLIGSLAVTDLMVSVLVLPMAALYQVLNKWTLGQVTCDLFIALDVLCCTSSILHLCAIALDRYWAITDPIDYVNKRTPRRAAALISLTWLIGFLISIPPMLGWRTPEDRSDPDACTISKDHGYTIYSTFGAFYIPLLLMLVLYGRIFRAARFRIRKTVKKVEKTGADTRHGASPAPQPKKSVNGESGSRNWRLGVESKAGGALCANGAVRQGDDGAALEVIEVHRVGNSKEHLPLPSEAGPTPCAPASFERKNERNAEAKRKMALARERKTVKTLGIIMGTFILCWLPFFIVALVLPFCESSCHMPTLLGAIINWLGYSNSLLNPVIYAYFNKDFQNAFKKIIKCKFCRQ

CC(C)CCN[C@@H]1CCc2cc(O)c(N3CC(=O)NS3(=O)=O)c(F)c2C1 [AC484, ABBV-CLS-484]
> 0.01 mM: all assays above
